This note sets out measurements from patent publication US20250288645A1, “USE OF GsMTx4 AND GsMTx4 CONJUGATES TO IMPROVE RECOVERY FROM JOINT INJURY” (priority 2023, published 2025).

The test system of one assay is chondrocytes. Description: Cartilage pre-treated with Yoda1: chondrocyte vulnerability to mechanical injury. The assay is classed as cell-based, murine. As to conditions: cartilage pre-treated with Yoda1, versus vehicle-treated controls in contralateral limbs.
Assay [1] concerns humeral head chondrocytes. In words: Explanted humeral head impact loading (2 mJ) after incubation with channel agonists. To be noted: 10 μM yoda1 or 5 nM GSK101, 15 minutes, 2 mJ load; for humeral head chondrocyte cell death following impact loading, female mice: relative to control media; for humeral head chondrocyte cell death following impact loading, male mice: relative to controls (DMSO 0.25%). The assay is classed as cell-based, mouse. The procedure:
Ethical approval was obtained from the appropriate institutional committee Humeri were harvested from wild-type 12-22 week old C57Bl/6 male and female mice. Each specimen was placed in calcium imaging buffer with 2 mM calcium chloride and subsequently incubated with 10 μM calcein-AM for 30 minutes at 37° C. To indicate intracellular esterase activity of living cells, each specimen was incubated with 10 μM yoda1, a Piezo1-specific agonist, 5 nM GSK101, a TRPV4-agonist, or control (DMSO 0.25%, n=7-10/group) in calcium imaging buffer for 15 minutes. Specimens were then incubated with 1.5 nM ethidium homodimer-1 for 3 minutes to indicate loss of plasma membrane integrity in dead cells. The specimen was then arranged in a custom 3-D printed holding device such that the chondrocytes within the apex of sphericity of the humeral head were facing the glass well of a dish to be imaged on an inverted confocal microscope. A baseline confocal image with overlay of 100 μm Z-stacks was obtained with 488 and 594 nm wavelengths to image live and dead cells, respectively. The humerus was then transferred to a custom impact loading apparatus. A 2 mJ load was applied to the lateral aspect of the proximal humerus, such that the convex apex of the humeral head cartilage was impacted against the glass microscope dish. A 2 mJ load was chosen based on preliminary work by Kotelsky to define mechanic-vulnerability of distal femur and proximal humerus articular chondrocytes in the custom loading apparatus. The samples were again incubated in ethidium homodimer-1. A post-injury confocal image with overlay of 100 μm Z-stacks was obtained. A custom MATLAB image processing algorithm was developed to quantify cell viability. The confocal images were processed as maximum intensity projections with threshold via Otsu's method. Then, watershed segmentation, distance transform, and centroid approximation algorithms were created and applied to segment and quantify individual cells based on intensity values. This facilitated the cell counting process, allowed quantification of the total cell area, and allowed adjustment of the region of interest between before- and after-impact micrographs.

In the case of `Clc1cccc(Cl)c1CSc1nnc(-c2cnccn2)s1` [Yoda1], in the assay with chondrocytes, the “chondrocyte vulnerability to mechanical injury” value is recorded as “significantly higher chondrocyte vulnerability”. Besides, in assay [1], the “humeral head chondrocyte cell death following impact loading, female mice” value was “not a significant increase in chondrocyte cell death” and the “humeral head chondrocyte cell death following impact loading, male mice” value was “statistically significant increase in humeral head chondrocyte cell death”.

In the case of `CC(C)C[C@H](NC(=O)c1cc2ccccc2s1)C(=O)N1CCN(C(=O)[C@H](CO)NS(=O)(=O)c2ccc(Cl)cc2Cl)CC1` [Gsk101], in assay [1], the “humeral head chondrocyte cell death following impact loading, female mice” value is on record as “nor was incubation with Gsk101 chondroprotective” and the “humeral head chondrocyte cell death following impact loading, male mice” value is “statistically significant decrease in humeral head chondrocyte cell death”.
